3 compounds from ChEMBL document CHEMBL1212706, “A potent mechanism-inspired O-GlcNAcase inhibitor that blocks phosphorylation of tau in vivo” (Nat Chem Biol, 2008) can be followed below.

Activity calls are given as the source filed them. No cut-off for these calls is given here.

The target in assay [1] is T1, Protein O-GlcNAcase (Homo sapiens, UniProt O60502).
T1 sequence (O60502 whole entry): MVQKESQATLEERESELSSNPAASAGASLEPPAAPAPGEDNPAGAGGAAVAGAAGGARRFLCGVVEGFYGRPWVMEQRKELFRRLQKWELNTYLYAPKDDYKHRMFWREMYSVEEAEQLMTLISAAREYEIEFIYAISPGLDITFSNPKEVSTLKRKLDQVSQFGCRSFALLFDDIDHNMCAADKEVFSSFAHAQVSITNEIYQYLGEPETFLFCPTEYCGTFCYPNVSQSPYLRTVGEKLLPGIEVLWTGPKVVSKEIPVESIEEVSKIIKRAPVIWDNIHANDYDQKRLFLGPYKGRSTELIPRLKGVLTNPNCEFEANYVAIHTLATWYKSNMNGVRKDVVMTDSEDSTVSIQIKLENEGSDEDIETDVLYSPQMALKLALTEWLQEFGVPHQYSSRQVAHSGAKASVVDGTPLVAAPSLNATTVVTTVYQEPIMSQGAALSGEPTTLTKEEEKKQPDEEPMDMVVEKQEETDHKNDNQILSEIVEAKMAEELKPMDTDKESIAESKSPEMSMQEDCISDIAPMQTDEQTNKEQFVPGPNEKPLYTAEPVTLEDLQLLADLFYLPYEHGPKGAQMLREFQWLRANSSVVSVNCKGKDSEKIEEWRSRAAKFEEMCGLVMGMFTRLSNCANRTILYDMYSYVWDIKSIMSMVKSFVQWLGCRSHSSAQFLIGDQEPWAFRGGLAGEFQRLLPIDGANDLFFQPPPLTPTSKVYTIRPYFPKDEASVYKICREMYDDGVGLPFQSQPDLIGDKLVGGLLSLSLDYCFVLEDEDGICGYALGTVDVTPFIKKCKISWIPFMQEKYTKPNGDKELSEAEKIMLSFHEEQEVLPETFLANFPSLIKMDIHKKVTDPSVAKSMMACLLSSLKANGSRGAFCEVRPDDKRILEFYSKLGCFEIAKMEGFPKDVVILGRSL
Put plainly: Inhibition of human O-GlcNAcase.

In assay [2] the test system is Saccharomyces cerevisiae. Put plainly: Inhibition of Saccharomyces cerevisiae alpha-glucosidase.
Assay [3] deals with T2, Beta-hexosaminidase (Vibrio cholerae serotype O1 (strain ATCC 39315 / El Tor Inaba N16961)) (UniProt Q9KU37).
T2 sequence (whole entry): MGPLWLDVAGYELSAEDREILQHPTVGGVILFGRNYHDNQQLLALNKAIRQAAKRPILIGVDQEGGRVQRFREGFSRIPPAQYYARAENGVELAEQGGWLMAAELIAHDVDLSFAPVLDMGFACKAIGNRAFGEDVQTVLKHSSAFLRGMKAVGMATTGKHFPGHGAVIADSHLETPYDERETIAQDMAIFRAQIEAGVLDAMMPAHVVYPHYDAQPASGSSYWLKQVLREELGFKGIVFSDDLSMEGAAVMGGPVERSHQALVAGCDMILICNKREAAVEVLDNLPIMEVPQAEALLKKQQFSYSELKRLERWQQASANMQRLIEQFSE
Briefly: Inhibition of Vibrio cholerae glycoside hydrolase NagZ.

Assay [4] deals with Beta-galactosidase (Kluyveromyces lactis) (UniProt P00723). Briefly: Inhibition of Kluyveromyces lactis glycoside hydrolase beta-galactosidase.
Assay [5] is described as follows: Inhibition of human lysosomal beta-hexosaminidase.
Assay [6] has as its system Rattus norvegicus. Briefly: Increase in O-GlcNAc level in Sprague-Dawley rat brain pyramidal cell layer of CA1 region at 200 mg/kg, po by […]. It counts as functional, organism-based. The arrangement: dose 200 mg/kg.
Assay [7] has as its system Canavalia ensiformis. Put plainly: Inhibition of Canavalia ensiformis alpha-mannosidase.
In assay [8] the target is T3, Alpha-galactosidase (Thermotoga maritima) (UniProt G4FEF4).
T3 sequence (whole entry): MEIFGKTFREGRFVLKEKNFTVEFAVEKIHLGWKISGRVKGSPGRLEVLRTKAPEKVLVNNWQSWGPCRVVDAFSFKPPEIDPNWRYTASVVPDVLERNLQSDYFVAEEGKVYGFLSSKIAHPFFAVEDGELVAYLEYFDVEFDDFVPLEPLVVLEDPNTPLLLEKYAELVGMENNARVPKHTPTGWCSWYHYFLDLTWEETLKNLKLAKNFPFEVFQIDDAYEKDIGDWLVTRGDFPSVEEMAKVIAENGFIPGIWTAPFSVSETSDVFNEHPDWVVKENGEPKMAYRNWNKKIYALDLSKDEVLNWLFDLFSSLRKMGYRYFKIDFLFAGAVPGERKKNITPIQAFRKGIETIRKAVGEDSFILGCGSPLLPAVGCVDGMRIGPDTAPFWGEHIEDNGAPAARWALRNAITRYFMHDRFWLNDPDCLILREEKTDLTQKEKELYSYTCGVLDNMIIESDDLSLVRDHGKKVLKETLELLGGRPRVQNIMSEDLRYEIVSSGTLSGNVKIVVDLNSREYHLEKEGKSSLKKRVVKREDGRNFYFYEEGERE
Put plainly: Inhibition of Thermotoga maritima alpha-galactosidase.

Assay [9] has as its system PC-12. Briefly: Induction of O-GlcNAc level in NGF-differentiated rat PC12 cells after 24 hrs by Western blot analysis. It is filed as functional, cell-based.
Assay [10] deals with PC-12. Briefly: Induction of O-GlcNAc level in NGF-differentiated rat PC12 cells after 24 hrs by densitometric analysis. The conditions noted are these: PC-12, 24 h. It is filed as functional, cell-based.
For assay [11], the system named is PC-12. Briefly: Induction of O-GlcNAc level in NGF-differentiated rat PC12 cells at >25 uM by Western blot analysis. It counts as functional, cell-based. The note with it: TDE = time-dependent effect.
Assay [12] relates to Rattus norvegicus. Briefly: Induction of O-GlcNAc level in rat at 50 mg/kg, iv by Western blot analysis. It counts as functional, organism-based. The arrangement: dose 50 mg/kg. The conditions noted are these: TDE = time-dependent effect. (In general: A western blot detects proteins with antibodies after separation by electrophoresis.)
The nature of assay [13]: Inhibition of beta-hexosaminidase.
The test system of assay [14] is PC-12. Briefly: Reduction in tau protein phosphorylation at Ser396 position in NGF-differentiated rat PC12 cells after 4 hrs by Western blot analysis relative to control. It is filed as functional, cell-based.
Assay [15] has as its system Rattus norvegicus. Briefly: Reduction in tau protein phosphorylation at Ser396 in Sprague-Dawley rat brain CA1 region at 200 mg/kg, po by […]. It counts as functional, organism-based. The arrangement: dose 200 mg/kg.
The subject of assay [16] is PC-12. Briefly: […] in pSer396 immunoreactivity in NGF-differentiated rat PC12 cells after 4 hrs by Western blot analysis. The conditions noted are these: TDE = time-dependent effect. It counts as functional, cell-based.
Assay [17] deals with Rattus norvegicus. Briefly: Increase in O-GlcNAc immunoreactivity in Sprague-Dawley rat brain CA1 region at 200 mg/kg, po by […]. It counts as functional, organism-based. More on the design: dose 200 mg/kg.
Assay [18] relates to Rattus norvegicus. Briefly: Reduction in tau protein phosphorylation at Thr231 in Sprague-Dawley rat brain CA1 region at 200 mg/kg, po by […]. It is filed as functional, organism-based. More on the design: dose 200 mg/kg.
Assay [19] has as its system Rattus norvegicus. Put plainly: Increase in O-GlcNAc immunoreactivity in Sprague-Dawley rat brain nucleus at 200 mg/kg, po by […]. It counts as functional, organism-based. More on the design: dose 200 mg/kg.
Assay [20] deals with Rattus norvegicus. Put plainly: Increase in O-GlcNAc immunoreactivity in Sprague-Dawley rat brain perikaryon at 200 mg/kg, po by […]. It is filed as functional, organism-based. More on the design: dose 200 mg/kg.
The test system of assay [21] is Rattus norvegicus. Put plainly: Decrease in pSer396 immunoreactivity in Sprague-Dawley rat brain epitops of CA1 region at 200 mg/kg, po by […]. It counts as functional, organism-based. More on the design: dose 200 mg/kg.
For assay [22], the system named is Rattus norvegicus. Put plainly: Decrease in pThr231 immunoreactivity in Sprague-Dawley rat brain epitops of CA1 region at 200 mg/kg, po by […]. It counts as functional, organism-based. More on the design: dose 200 mg/kg.
The test system of assay [23] is Rattus norvegicus. Put plainly: Decrease in pSer396 immunoreactivity in Sprague-Dawley rat brain pyramidal cell layer of CA1 region at 200 mg/kg, po by […]. It is filed as functional, organism-based. More on the design: dose 200 mg/kg.
The test system of assay [24] is Rattus norvegicus. Put plainly: Decrease in pThr231 immunoreactivity in Sprague-Dawley rat brain pyramidal cell layer of CA1 region at 200 mg/kg, po by […]. The arrangement: dose 200 mg/kg. It counts as functional, organism-based.
The species entered for assay [25] is Homo sapiens. Briefly: Selectivity for human O-GlcNAcase over human lysosomal beta-hexosaminidase.

Beta-galactosidase (Kluyveromyces lactis), sequence (P00723 whole entry): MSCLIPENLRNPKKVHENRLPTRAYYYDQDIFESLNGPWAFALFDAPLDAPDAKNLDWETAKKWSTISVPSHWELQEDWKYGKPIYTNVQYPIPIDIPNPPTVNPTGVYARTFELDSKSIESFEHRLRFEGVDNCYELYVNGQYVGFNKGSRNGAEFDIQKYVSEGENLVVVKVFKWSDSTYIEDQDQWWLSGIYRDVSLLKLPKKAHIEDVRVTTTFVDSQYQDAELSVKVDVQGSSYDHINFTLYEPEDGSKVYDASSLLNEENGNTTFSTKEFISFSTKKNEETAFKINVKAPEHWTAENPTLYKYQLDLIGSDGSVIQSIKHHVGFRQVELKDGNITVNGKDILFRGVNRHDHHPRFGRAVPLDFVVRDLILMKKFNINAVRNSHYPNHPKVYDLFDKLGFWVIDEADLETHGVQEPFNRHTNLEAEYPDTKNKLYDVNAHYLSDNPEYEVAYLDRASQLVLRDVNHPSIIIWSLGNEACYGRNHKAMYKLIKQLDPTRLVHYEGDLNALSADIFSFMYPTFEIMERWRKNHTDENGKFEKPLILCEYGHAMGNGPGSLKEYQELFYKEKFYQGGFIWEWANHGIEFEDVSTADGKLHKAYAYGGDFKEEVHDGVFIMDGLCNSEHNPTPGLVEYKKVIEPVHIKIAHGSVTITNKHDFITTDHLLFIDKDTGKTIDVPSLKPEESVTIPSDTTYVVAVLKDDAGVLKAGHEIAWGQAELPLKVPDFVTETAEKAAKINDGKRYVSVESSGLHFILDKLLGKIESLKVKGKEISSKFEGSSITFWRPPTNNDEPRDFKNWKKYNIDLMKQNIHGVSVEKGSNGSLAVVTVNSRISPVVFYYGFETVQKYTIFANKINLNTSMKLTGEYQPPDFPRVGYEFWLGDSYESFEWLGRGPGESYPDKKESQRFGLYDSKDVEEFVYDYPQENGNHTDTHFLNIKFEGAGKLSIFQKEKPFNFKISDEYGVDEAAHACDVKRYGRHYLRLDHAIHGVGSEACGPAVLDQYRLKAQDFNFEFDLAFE

In general, Ki refers to the equilibrium dissociation constant of an inhibitor or competing ligand from its target. With `CC(=O)N[C@H]1c2nc(CC(=O)O)cn2[C@H](CO)[C@@H](O)[C@@H]1O`, in assay [1], the affinity, expressed as Ki, was 420 nM.

As a reminder, the EC50 is the concentration at which the effect is half-maximal. A higher EC50 goes with lower potency in that assay. Consider `CCNC1=N[C@@H]2[C@@H](O)[C@H](O)[C@@H](CO)O[C@@H]2S1`, for which the inhibition result in [2], in assay [3], in [4], in [7], in assay [8] and in [13] was “inactive” each time. In [5], the Ki was determined as 750000 nM. Besides, the result in [6], in [15], in [17], in assay [18], in assay [19] and in [20] was Active. Also, the result in assay [21], in assay [22], in assay [23] and in assay [24] was Active. Also, the Activity entry in assay [9] was “Dose-dependent effect”; in [11], “tde”; in assay [12] it was “tde”; in assay [14], “Dose-dependent effect”; in assay [16], “tde”. This compound gave an EC50 in assay [10] of 30 nM.

On to `CCCC1=N[C@@H]2[C@@H](O)[C@H](O)[C@@H](CO)O[C@@H]2S1`, for which the fold change (FC) in assay [25] came out at 800. Besides, the affinity in [1] corresponds to a Ki of 600 nM.
